Measurements: patent US8586082B2, “Solid orally administerable pharmaceutical dosage forms with rapid active principle release” (Bayer Intellectual Property GmbH, priority 2005, dated 2013)
In brackets after ≈: the same amount, converted by molar mass.

Legend:
[1] = Bioavailability, comparative study in dogs (150 mg/kg); type: in vivo; conditions: Beagle dogs, crossover, suspension, geometric means
[2] = In vitro release, USP apparatus 2 (paddle), non-sink conditions (supersaturation); type: physicochemical; conditions: 75 rpm, 900 ml acetate buffer pH 4.5, 37° C., active ingredient dose 20 mg
Protocol: The in vitro release investigations are carried out by USP release method with apparatus 2 (paddle) at a temperature of 37° C. The speed of rotation of the stirrer is 75 rpm (revolutions per minute) in 900 ml of an acetate buffer solution of pH 4.5, which is prepared from 29.9 g of sodium acetate trihydrate and 16.6 ml of glacial acetic acid in 10 l of water.
The investigations in this connection take place under sink or non-sink conditions.
Non-sink conditions: The investigations for examining the supersaturation (increase in solubility) take place without addition of a surfactant and with a dose of 20 mg of active ingredient (I) to be released.
To illustrate the supersaturation behaviour of exemplary formulations 1 to 6 (see below), as comparison the in vitro release (non-sink conditions) of the micronized crystalline active ingredient (I) in the thermodynamically stable crystal modification I and of a rapid-release tablet formulation produced by fluidized bed granulation and comprising micronized crystalline active ingredient (I) in crystal modification I were determined.

[3] = Bioavailability, comparative study in rats (3 mg/kg); type: in vivo; conditions: male Wistar rats, suspension, geometric means
Protocol: The bioavailability was investigated by administering 3 mg/kg active ingredient (I) in each case to male Wistar rats: • a) in the form of exemplary formulation 1 (suspended in water) • b) in the form of exemplary formulation 2 (suspended in water) • c) in the form of exemplary formulation 3 (suspended in water) • d) in the form of the micronized crystalline active ingredient in thermodynamically stable crystal modification I (suspended in 0.5% strength aqueous methylhydroxyethylcellulose (proprietary name: Tylose MH 300))

[4] = Solubility in water of active ingredient (I); type: physicochemical; conditions: 25° C., crystal modification I

AUC (0-24)norm [1] [kg·h/L]	Cmax, norm [1] [kg/L]	Cmax ([1]; dog, in vivo, oral) [ng/mL]	AUC(0-t) ([1]; dog, in vivo, oral, read-out: AUC (0-24)) [ng·h/mL]	Release ([2]; 15 min) [%]	Release ([2]; 30 min) [%]	Release ([2]; 60 min) [%]	Release ([2]; 90 min) [%]	AUC (0-24)norm [3] [kg·h/L]	Cmax, norm [3] [kg/L]	Cmax ([3]; rat, in vivo, oral) [ng/mL]	AUC(0-t) ([3]; rat, in vivo, oral, read-out: AUC (0-24)) [ng·h/mL]	solubility [4] [µg/mL]	Compound
0.081	0.015	2220	12200	23	34	41	44	0.254	0.074	222	762		O=C(NC[C@H]1CN(c2ccc(N3CCOCC3=O)cc2)C(=O)O1)c1ccc(Cl)s1 [Comparative Formulation 1.1, 5-Chloro-N-({(5S)-2-oxo-3-[4-(3-oxo-4-morpholinyl)phenyl]-1,3-oxazolidin-5-yl}methyl)-2-thiophenecarboxamide]
												~7 (≈ 16.1 µM)	O=C(NC[C@H]1CN(c2ccc(N3CCOCC3=O)cc2)C(=O)O1)c1ccc(Cl)s1 [active ingredient (I), 5-Chloro-N-({(5S)-2-oxo-3-[4-(3-oxo-4-morpholinyl)phenyl]-1,3-oxazolidin-5-yl}methyl)-2-thiophenecarboxamide]
